From patent US11827611B2, “Ubiquitin-specific peptidase 24 inhibitor, medicinal composition including the same and method of delaying or reversing multidrug resistance in cancers using the same” (NATIONAL CHENG KUNG UNIVERSITY, priority 2020, dated 2023)
Counter-ions that a name gives are not always drawn. Like-named read-outs stand apart in the source and are kept apart here. Each block holds one molecule with its values, some of them ahead of it.

Tests used:
USP7 = USP7 (Homo sapiens, UniProt Q93009); experiment: catalytic activity of USP7; type: biochemical; conditions: data not shown
lung cancer = lung cancer migratory ability; type: cell-based; conditions: data not shown
USP10 = USP10 (Homo sapiens, UniProt Q14694); experiment: catalytic activity of USP10; type: biochemical; conditions: data not shown
USP24 = USP24 (Homo sapiens, UniProt Q9UPU5); experiment: in vitro enzyme assay of pure recombinant USP24 protein with biotin-tetra-ub as the substrate; type: biochemical; conditions: for catalytic activity of recombinant purified USP24 proteins: biotin-tetra-ub substrate, FIG. 4C / 6C
Source text: FIG. 4C illustrates the result of in vitro enzyme assay of the enzyme activity of USP24 pure recombinant USP24 protein with biotin-tetra-ub as the substrate in the absence or presence of USP24 inhibitor according to several embodiments of the present invention.
FIG. 6C illustrates the result of in vitro enzyme assay of the enzyme activity of USP24 pure recombinant USP24 protein with biotin-tetra-ub as the substrate in the absence or presence of USP24 inhibitor according to several embodiments of the present invention.

[1] = tested on: USP24 substrates, Bax and BRD7, in A549 cells; experiment: protein levels of USP24 substrates in A549 cells treated with USP24 inhibitor candidates (Western blotting); type: cell-based, human; conditions: for levels of Bax, BRD7 / level of p300: A549 cells; for levels of Bax, BRD7: FIG. 4B; for level of p300: FIG. 4D
Source text: FIG. 4B illustrates a bar diagram showing the relative protein levels of USP24 substrates, Bax and BRD7, in A549 cells treated with various USP24 inhibitor candidates according to several embodiments of the present invention.
FIG. 4D illustrates the result of Western blotting assay with anti-Ubiquitin antibodies for evaluating the ubiquitination of p300 in A549 cells with or without USP24 overexpression or USP24 inhibitor according to an embodiment of the present invention.
Human lung adenocarcinoma epithelial cell line A549 and other lung cancer cell lines were cultured with RPMI 1640 medium (Invitrogen) containing 10% fetal bovine serum (FBS), 100 μg/ml streptomycin and 100 U/ml penicillin G sodium. All cells were incubated at 37° C. with 5% CO2. For transfecting plasmid, Polyjet (SignaGen) was used according to manufacturer's instructions.

USP9x = USP9x (Homo sapiens, UniProt Q93008); experiment: catalytic activity of USP9x; type: biochemical; conditions: data not shown
EMT markers = experiment: EMT markers; type: cell-based
P-gp = experiment: Western blotting of the level and protein stability of P-gp in T24 treated with USP24 inhibitor; type: cell-based, human; conditions: T24 cells
Source text: FIG. 4G(a) to 4H(b) illustrate the results of Western blotting assay of the level and protein stability of P-gp in T24 treated with USP24 inhibitor according to an embodiment of the present invention.

T24 cells [2] = experiment: sphere formation of T24 cells with or without USP24 inhibitor; type: cell-based, human
Source text: FIGS. 41(a) and 41(b) illustrate the results of the sphere formation of T24 cells with or without USP24 inhibitor treatment according to an embodiment of the present invention.

Hone-1 CPT-R = experiment: cytotoxicity of Hone-1 CPT-R cells treated with or without USP24 inhibitor; type: cell-based; conditions: FIG. 4F(b)
Source text: (§1) FIG. 4E(a) to 4F(c) illustrate the results of the cytotoxicity of T24 cells [FIGS. 4E(a) and 4E(b)], TMZR [FIG. 4F(a)], Hone-1 CPT-R [FIG. 4F(b)] and HCT116OX5 [FIG. 4F(c)] treated with or without USP24 inhibitor according to several embodiments of the present invention.

T24 cells [3] = experiment: taxol concentration inside cells evaluated by LC/MS/MS; type: cell-based, human
Source text: FIG. 2H illustrates the images of the taxol concentration inside cells evaluated by LC/MS/MS with or without USP24 knockdown according to an embodiment of the present invention.
FIG. 4J illustrates the concentration of taxol inside cells treated with USP24 inhibitor evaluated by LC/MS/MS according to an embodiment of the present invention.
FIG. 6B illustrates the profiles of the taxol concentration in the taxol-resistant T24 cells treated with USP24-i101 (the upper panel) or DMSO (lower panel) detected by LC/MS/MS analysis according to an embodiment of the present invention.

T24 cells [4] = experiment: cytotoxicity of T24 cells in the treatment of taxol with or without USP24 inhibitor; type: cell-based, human; conditions: FIG. 4E
Source text: as §1
FIG. 6A(a) to 6A(b) illustrate the results of the cytotoxicity of T24 cells in the treatment of taxol with or without USP24 inhibitor treatment according to an embodiment of the present invention.

[5] = body weight of SCID mice treated with taxol and USP24 inhibitor; type: in vivo; conditions: data not shown
Source text: (§2) FIGS. 4K(a) and 4K(b) illustrate the results of the tumor size of T24 injected into SCID mice treated with taxol and USP24 inhibitor in the indicated time according to an embodiment of the present invention.

T24 = experiment: tumor size of T24 injected into SCID mice treated with taxol and USP24 inhibitor; type: in vivo; conditions: combined with taxol
Source text: as §2
The experiments related with animals were approved by the Institutional Animal Care and Use Committee (IACUC) at National Cheng Kung University (NCKU). These transgenic mice were generated in National Laboratory Animal Center (NLAC, Taiwan, Tainan). After breeding, two-month-old transgenic mice were used to study lung cancer development. Caging was provided suitable space and accommodates appropriate population densities that allow animals' sufficient freedom of movement. To provide amounts of food that must be for transgenic mice normal growth, and maintenance of normal body weight. These transgenic mice were accessed to fresh and uncontaminated drinking water. Transgenic mice were also observed and cared at least for two to three times per week. All methods involving animals were performed in accordance with the relevant guidelines and regulations.

HCT116OX5 = experiment: cytotoxicity of HCT116OX5 cells treated with or without USP24 inhibitor; type: cell-based; conditions: HCT116OX5, FIG. 4F(c)
Source text: as §1

TMZR = experiment: cytotoxicity of TMZR cells treated with or without USP24 inhibitor; type: cell-based; conditions: FIG. 4F(a)
Source text: as §1

[6] = cytotoxicity of HCC827-GR cells treated with or without USP24 inhibitor under various concentrations of Gefitinib; conditions: human
HCC827-GR cells = experiment: as above

USP24, sequence (Q9UPU5 whole entry): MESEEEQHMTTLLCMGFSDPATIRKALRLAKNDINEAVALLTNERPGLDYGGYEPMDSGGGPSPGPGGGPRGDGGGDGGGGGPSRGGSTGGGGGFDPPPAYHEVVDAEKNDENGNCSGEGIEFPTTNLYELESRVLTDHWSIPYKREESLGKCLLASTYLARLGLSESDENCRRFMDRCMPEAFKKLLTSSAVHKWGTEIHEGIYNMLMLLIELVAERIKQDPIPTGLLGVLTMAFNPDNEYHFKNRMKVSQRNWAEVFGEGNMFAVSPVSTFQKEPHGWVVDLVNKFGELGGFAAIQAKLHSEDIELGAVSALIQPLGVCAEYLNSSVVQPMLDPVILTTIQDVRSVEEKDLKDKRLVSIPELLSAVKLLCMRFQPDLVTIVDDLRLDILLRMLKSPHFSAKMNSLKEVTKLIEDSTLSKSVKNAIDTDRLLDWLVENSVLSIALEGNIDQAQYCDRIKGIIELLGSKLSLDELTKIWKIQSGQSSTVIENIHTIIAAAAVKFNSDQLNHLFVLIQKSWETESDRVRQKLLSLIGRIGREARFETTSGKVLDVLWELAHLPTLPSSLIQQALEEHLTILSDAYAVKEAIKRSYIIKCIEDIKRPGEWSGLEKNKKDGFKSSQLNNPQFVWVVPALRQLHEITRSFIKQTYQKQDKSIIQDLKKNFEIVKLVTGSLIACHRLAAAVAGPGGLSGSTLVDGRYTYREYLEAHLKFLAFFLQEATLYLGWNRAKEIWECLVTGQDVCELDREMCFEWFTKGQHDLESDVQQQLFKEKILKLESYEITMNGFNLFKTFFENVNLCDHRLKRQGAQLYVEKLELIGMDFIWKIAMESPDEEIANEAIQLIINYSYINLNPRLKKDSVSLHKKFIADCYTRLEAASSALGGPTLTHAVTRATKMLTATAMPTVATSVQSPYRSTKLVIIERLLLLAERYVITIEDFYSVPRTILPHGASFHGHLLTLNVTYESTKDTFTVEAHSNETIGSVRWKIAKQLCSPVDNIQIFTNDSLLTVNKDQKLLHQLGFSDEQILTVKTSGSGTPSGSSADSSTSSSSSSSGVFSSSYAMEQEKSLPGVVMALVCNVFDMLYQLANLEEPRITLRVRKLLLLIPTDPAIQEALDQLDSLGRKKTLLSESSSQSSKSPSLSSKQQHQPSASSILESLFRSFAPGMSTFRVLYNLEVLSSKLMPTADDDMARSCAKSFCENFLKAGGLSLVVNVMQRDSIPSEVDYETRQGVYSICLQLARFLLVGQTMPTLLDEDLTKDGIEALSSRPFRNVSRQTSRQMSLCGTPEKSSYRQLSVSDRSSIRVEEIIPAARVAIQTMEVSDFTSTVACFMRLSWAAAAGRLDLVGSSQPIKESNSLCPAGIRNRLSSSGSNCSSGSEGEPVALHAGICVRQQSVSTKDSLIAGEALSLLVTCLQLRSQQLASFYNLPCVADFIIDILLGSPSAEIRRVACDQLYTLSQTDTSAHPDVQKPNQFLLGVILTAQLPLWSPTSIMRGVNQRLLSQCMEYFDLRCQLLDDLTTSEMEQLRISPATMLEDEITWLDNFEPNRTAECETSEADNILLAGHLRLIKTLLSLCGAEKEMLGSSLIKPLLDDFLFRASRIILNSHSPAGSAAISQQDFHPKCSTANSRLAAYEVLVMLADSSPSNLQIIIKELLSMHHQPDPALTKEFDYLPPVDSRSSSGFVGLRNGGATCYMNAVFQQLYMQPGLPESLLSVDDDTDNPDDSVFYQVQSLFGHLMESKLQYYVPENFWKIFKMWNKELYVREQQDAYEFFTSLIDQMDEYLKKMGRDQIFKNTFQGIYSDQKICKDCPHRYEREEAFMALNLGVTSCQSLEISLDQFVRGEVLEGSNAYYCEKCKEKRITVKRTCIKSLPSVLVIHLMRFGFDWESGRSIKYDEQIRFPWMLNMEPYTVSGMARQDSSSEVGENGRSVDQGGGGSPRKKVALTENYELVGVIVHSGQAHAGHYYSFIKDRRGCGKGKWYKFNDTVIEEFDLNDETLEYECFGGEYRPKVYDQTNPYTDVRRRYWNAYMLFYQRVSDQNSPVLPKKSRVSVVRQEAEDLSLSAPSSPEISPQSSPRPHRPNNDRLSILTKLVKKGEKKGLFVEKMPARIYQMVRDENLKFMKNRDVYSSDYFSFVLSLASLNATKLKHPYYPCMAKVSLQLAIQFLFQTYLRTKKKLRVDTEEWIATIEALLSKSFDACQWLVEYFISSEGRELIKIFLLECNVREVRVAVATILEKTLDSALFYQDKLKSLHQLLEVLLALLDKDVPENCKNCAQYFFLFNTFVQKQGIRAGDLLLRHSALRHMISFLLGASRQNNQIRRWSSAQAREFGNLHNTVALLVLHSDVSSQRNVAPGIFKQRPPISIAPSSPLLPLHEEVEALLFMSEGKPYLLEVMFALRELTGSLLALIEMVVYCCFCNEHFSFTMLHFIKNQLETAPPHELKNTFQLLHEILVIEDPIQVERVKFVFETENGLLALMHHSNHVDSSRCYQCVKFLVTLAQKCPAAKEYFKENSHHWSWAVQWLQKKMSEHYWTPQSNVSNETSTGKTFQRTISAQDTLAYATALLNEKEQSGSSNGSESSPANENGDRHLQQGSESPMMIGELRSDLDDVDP
USP7, sequence (Q93009 whole entry, species assumed): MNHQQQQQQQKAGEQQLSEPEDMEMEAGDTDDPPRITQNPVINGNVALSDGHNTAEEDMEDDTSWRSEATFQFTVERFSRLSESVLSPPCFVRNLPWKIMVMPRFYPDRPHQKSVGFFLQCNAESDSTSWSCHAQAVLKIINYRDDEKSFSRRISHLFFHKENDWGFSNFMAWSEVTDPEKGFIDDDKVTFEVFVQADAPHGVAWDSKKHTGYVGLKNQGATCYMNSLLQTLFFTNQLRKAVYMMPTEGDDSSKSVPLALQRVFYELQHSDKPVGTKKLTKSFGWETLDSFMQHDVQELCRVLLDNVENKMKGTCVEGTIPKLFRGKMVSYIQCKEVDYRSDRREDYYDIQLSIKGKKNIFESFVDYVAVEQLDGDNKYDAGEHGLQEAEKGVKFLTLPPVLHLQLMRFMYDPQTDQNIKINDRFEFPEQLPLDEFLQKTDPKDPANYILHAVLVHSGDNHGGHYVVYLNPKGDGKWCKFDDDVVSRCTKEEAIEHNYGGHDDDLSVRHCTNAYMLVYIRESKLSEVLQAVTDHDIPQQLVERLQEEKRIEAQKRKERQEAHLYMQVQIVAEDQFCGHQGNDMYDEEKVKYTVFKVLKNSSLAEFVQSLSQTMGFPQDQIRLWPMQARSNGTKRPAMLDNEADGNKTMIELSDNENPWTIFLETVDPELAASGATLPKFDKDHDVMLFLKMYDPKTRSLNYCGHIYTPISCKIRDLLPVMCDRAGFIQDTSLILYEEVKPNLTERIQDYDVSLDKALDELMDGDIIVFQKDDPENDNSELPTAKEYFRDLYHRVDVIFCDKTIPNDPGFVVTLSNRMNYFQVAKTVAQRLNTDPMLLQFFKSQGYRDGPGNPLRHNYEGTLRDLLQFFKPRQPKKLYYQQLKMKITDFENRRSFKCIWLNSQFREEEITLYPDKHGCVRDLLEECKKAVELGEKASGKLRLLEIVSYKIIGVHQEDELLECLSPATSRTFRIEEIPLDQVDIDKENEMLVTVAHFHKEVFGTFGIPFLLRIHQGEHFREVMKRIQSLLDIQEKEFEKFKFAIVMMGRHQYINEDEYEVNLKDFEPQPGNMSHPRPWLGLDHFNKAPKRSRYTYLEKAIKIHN
USP10, sequence (Q14694 whole entry): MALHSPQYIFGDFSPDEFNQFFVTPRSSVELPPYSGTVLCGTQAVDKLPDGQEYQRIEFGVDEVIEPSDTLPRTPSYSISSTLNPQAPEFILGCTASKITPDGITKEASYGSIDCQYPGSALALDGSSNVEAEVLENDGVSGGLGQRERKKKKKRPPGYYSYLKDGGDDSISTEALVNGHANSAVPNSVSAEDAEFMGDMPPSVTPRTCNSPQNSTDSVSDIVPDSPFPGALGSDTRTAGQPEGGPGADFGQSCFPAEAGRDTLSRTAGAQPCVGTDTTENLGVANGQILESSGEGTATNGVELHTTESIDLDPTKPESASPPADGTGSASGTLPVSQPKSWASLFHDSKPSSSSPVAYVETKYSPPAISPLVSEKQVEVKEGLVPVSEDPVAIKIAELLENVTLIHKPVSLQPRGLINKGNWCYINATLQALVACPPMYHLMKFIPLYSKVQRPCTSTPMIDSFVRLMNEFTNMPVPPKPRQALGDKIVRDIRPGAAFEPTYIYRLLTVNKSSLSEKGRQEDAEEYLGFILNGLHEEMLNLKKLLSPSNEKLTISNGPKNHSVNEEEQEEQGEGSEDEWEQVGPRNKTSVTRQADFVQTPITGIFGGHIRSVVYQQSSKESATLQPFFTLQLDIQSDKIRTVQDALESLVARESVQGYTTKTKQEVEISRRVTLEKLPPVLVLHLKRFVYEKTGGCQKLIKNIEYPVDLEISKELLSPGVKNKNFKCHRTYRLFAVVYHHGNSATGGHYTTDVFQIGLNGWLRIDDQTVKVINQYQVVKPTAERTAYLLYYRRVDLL

catalytic activity of USP7 (USP7): could inhibit
catalytic activity of USP10 (USP10): could inhibit
catalytic activity of recombinant purified USP24 proteins (USP24): inhibited the catalytic activity
Compound: CCCCNS(=O)(=O)c1ccc(NC(=O)c2ccc3ccccc3c2O)c([N+](=O)[O-])c1 [NCI158067]
lung cancer migration (lung cancer): could inhibit lung cancer migration
levels of Bax, BRD7 [1]: could decrease the levels
level of p300 [1]: could decrease the levels

catalytic activity of USP9x (USP9x): could not block
catalytic activity of USP7 (USP7): could not block
catalytic activity of USP10 (USP10): could not block
catalytic activity of recombinant purified USP24 proteins (USP24): inhibited the catalytic activity
specificity in blocking USP24 enzyme activity (USP24; versus USP7, USP9x, USP10): higher specificity
Compound: CN1CCN(CCCCN2c3ccccc3Sc3ccc(C(=O)c4ccccc4)cc32)CC1 [NCI677397, (10-(4-(4-Methylpiperazin-1-yl)butyl)-10H-phenothiazin-2-yl)(phenyl)methanone oxalate]
EMT markers (EMT markers): inhibited
level of P-gp (P-gp): could decrease the level of P-gp
T24 sphere formation ability (T24 cells [2]): inhibit the T24 sphere formation ability
drug resistance induced by Camptothecin in NPC (Hone-1 CPT-R): could significantly block the drug resistance
concentration of taxol inside cells, with USP24 inhibitor (T24 cells [3]; under 1000 nM taxol treatment): 321.36 nM
drug resistance induced by taxol in lung cancer (T24 cells [4]): could significantly block the drug resistance
body weight [5]: did not affect the body weight
cytotoxicity of taxol in the inhibition of cancer size and weight (T24): increased the cytotoxicity of taxol in the inhibition of cancer size and weight
lung cancer migration (lung cancer): could inhibit lung cancer migration
levels of Bax, BRD7 [1]: could decrease the levels
level of p300 [1]: could decrease the levels
drug resistance induced by oxaliplatin in colorectal cancer (HCT116OX5): could significantly block the drug resistance
drug resistance induced by TMZ in brain cancer (TMZR): could significantly block the drug resistance

Compound: CN1CCN(CCN2c3ccccc3Sc3ccc(C(=O)c4ccccc4)cc32)CC1 [USP24-i101, (10-(2-(4-Methylpiperazin-1-yl)ethyl)-10H-phenothiazin-2-yl)(phenyl)methanone]
viability at 1 μg/mL [6]: 94%
viability at 5 μg/mL [6]: 80.5%
IC50 (HCC827-GR cells; read-out: IC50 of gefitinib in HCC827-GR with USP24-i101, 1 μg/mL of USP24-i101): 6.3 nM
IC50 (HCC827-GR cells; read-out: IC50 of gefitinib in HCC827-GR with USP24-i101, 5 μg/mL of USP24-i101): 3.1 nM
catalytic activity of recombinant purified USP24 proteins (USP24): had comparably catalytic activity to NCI699397

Compound: CCC[C@H](NC(=O)/C(C#N)=C/c1cccc(Br)n1)c1ccccc1 [WP1130, reference compound]
inhibition of the substrates of USP24 in lung cancer ([1]; FIG. 4C): could not inhibit

Compound: CC(=O)O[C@H]1C(=O)[C@@]2(C)[C@H]([C@H](OC(=O)c3ccccc3)[C@]3(O)C[C@H](OC(=O)[C@H](O)[C@@H](NC(=O)c4ccccc4)c4ccccc4)C(C)=C1C3(C)C)[C@]1(OC(C)=O)CO[C@@H]1C[C@@H]2O [taxol]
accumulation of taxol inside the drug resistant cells, T24 (T24 cells [3]; loss of USP24 (knockdown)): 272.7 nM/1000 nM
accumulation of taxol inside the drug resistant cells, T24 (T24 cells [3]; without USP24 knockdown): 110.8 nM/1000 nM
